Reference: paper PMC8217170, “Phase Ib dose-escalation study of the hypoxia-modifier Myo-inositol trispyrophosphate in patients with hepatopancreatobiliary tumors” (Nature Communications, 2021)

Experiment: Phase Ib dose escalation: safety and tolerability (CTCAE v4.03), MTD
Type: in vivo, human
Parameters: key to Hypercalcemia, CTCAE-Grade / Hypophosphatemia, CTCAE-Grade / Cholestasis, CTCAE-Grade / Nausea, CTCAE-Grade / Hypertension, CTCAE-Grade / Upper respiratory tract infection, CTCAE-Grade / Hyponatremia, CTCAE-Grade / Hypomagnesemia, CTCAE-Grade / Ascites & death due to rapid progression of malignancy, CTCAE-Grade / Hypokalemia, CTCAE-Grade / Pyrexia, CTCAE-Grade / Hyperphosphatemia, CTCAE-Grade / AV Block 1°, CTCAE-Grade / Palpations, CTCAE-Grade: 1 is the mildest form of the specific symptom; 5 is death
Conditions: for Hypercalcemia, CTCAE-Grade: relationship to IMP: Definitively
Text: This first-in-patient investigator-initiated phase Ib dose-escalation study followed a 3 + 3 dose-escalation scheme with a planned maximal inclusion of 48 participants allocated to eight cohorts of increasing doses. Outcomes were safety, tolerability, pharmacokinetics, and preliminary efficacy of ITPP with participants in this exploratory, prospective, open-label and unblinded, unrandomized, single-center investigation being enrolled at the University Hospital Zurich (USZ), Switzerland. Written informed consent was obtained of all participants before study inclusion after a time of consideration of at least 24 h. Written consent included the reporting and publication of individual, anonymized patient data. The study adhered to the principles of the Declaration of Helsinki, current good clinical practice guidelines and all ethical regulations. The study protocol was approved by the responsible independent ethics committee of Zurich (KEK-ZH-Nr. 2014-0374) and the national regulatory authority Swissmedic (2015DR1009) and is provided in the Supplementary Note 1. The study setup was published before inclusion start[55] and the trial first registered at ClinicalTrials.gov (NCT02528526) on 11/11/2014. After 6 sequential reviews requiring minor editorial changes, final registration at ClinicalTrials.gov was obtained on the 08/18/2015. The first patient was included in the study 04/13/2015, with treatment started on the 04/27/2015. 4 patients were included in the trial before final registration at ClinicalTrials.gov (04/13/2015–07/20/2015). The last patient was included on the 06/12/2018, treatment started on the 06/18/2018 and the last treatment administered on 07/06/2018. Data cut-off for the study was the 12/31/2018. The manuscript was written in compliance with ICMJE guidelines.
Primary objectives were (i) assessment of the safety and tolerability of increasing doses of ITPP, and (ii) establishment of the MTD (primary endpoint) according to the dose escalation schema. The primary outcome was measured by collection of adverse effects information according to Common Terminology Criteria for Adverse Events (CTCAE, US National Cancer Institute, version 4.03). Safety objectives and outcomes were identical with the primary endpoint.
The study drug (brand name: OXY111A) was intravenously administered in 9 infusions, each lasting 8 h, over 3 weeks in an outpatient setting at the Phase 1 unit of the USZ Clinical Trials Center. Due to its anionic properties, ITPP acts a potent chelator of calcium. Therefore, administration with CaCl2 (Baxter) at a 1:0.75 molar ratio has been determined to prevent hypocalcaemia. Respective doses were calculated based on body surface area (DuBois/DuBois formula). Cohort 1 started at weekly doses of 5600 mg/m^2 weekly, equal to the maximal weekly dose tested in healthy volunteers (unpublished data from Normoxys®). Dose escalation was performed according to the predefined scheme (Fig. 1a, Supplementary Note 1: page 6) up to a maximum weekly dose of 43,700 mg/m^2. During infusion days, participants had continuous monitoring of vital signs and daily 12-electrode electrocardiograms. Electrolytes measurements and venous blood gas analyses were performed three-hourly, while complete blood count, coagulation and routine kidney/liver parameters were assessed twice daily.
Severity of encountered AE was assessed following the CTCAE guidelines. Serious AE were defined as events being life-threatening, necessitating hospitalization, resulting in death or birth defects. DLT was defined as any AE ≥ grade 3 and sTET as any grade 2 AE considered to be definitely, probably or possibly related to ITPP. […] MTD was defined as the dose preceding the level at which 1 patient experienced a DLT or ≥3 patients experienced a sTET (Supplementary Note 1: page 6). The window for DLT/sTET/MTD assessment was from first dose of ITPP until first dose of chemotherapy or 10d following the last ITPP infusion. […]

[1] = cohort 1, SAE, relationship to IMP: Unrelated

O=P1(O)OC2C3OP(=O)(O)OP(=O)(O)OC3C3OP(=O)(O)OP(=O)(O)OC3C2OP(=O)(O)O1 (centres unmarked) [ITPP, Myo-inositol trispyrophosphate]
59.4%: Hypercalcemia, share of ITPP-related AE (all cohorts)
One: Hyperphosphatemia, patients (asymptomatic, grade I)
Total: 3 (10.7%): Ascites due to oncological progress (AE, not ITPP-related) (all cohorts, n = 28, total (%)) | Hyponatremia (AE, not ITPP-related) (all cohorts, n = 28, total (%)) | Upper respiratory tract infection (AE, not ITPP-related) (all cohorts, n = 28, total (%))
5: Ascites & death due to rapid progression of malignancy, CTCAE-Grade [1]
67.9 % of patients: Hypercalcemia of free ionized calcium, share of patients (all cohorts)
5/28: Hypomagnesemia, patients (all CTCAE grade I)
28.1%: Hypomagnesemia/-phosphatemia, share of ITPP-related AE (all cohorts)
Total: 3(10.7%): Hypertension (TET) (all cohorts, n = 28, total (%))
Total: 1 (3.6%): AV Block 1° (AE, not ITPP-related) (all cohorts, n = 28, total (%)) | Acute kidney injury grade 3 (AE, not ITPP-related) (all cohorts, n = 28, total (%)) | C. difficile enteritis (AE, not ITPP-related) (all cohorts, n = 28, total (%)) | Cholestasis (AE, not ITPP-related) (all cohorts, n = 28, total (%)) | Fatigue (AE, not ITPP-related) (all cohorts, n = 28, total (%)) | Hyperphosphatemia (TET) (all cohorts, n = 28, total (%)) | Icterus due to malignant obstruction (AE, not ITPP-related) (all cohorts, n = 28, total (%)) | Lower gastrointestinal bleeding (AE, not ITPP-related) (all cohorts, n = 28, total (%)) | Nausea & vomiting due to malignant infiltration of stomach (AE, not ITPP-related) (all cohorts, n = 28, total (%)) | Nausea (AE, not ITPP-related) (all cohorts, n = 28, total (%)) | Neutropenia (AE, not ITPP-related) (all cohorts, n = 28, total (%)) | Palpitations (AE, not ITPP-related) (all cohorts, n = 28, total (%))
0: AV Block 1° (AE, not ITPP-related) (cohort 1, 1866 mg/m^2) | Acute kidney injury grade 3 (AE, not ITPP-related) (cohort 1, 1866 mg/m^2) | C. difficile enteritis (AE, not ITPP-related) (cohort 1, 1866 mg/m^2) | Cholestasis (AE, not ITPP-related) (cohort 1, 1866 mg/m^2) | Fatigue (AE, not ITPP-related) (cohort 1, 1866 mg/m^2) | Hypercalcemia (TET) (cohort 1, 1866 mg/m^2) | Hyperphosphatemia (TET) (cohort 1, 1866 mg/m^2) | Hypertension (TET) (cohort 1, 1866 mg/m^2) | Hypokalemia (AE, not ITPP-related) (cohort 1, 1866 mg/m^2) | Hypomagnesemia (TET) (cohort 1, 1866 mg/m^2) | Hyponatremia (AE, not ITPP-related) (cohort 1, 1866 mg/m^2) | Hypophosphatemia (TET) (cohort 1, 1866 mg/m^2) | Icterus due to malignant obstruction (AE, not ITPP-related) (cohort 1, 1866 mg/m^2) | Nausea & vomiting due to malignant infiltration of stomach (AE, not ITPP-related) (cohort 1, 1866 mg/m^2) | Nausea (AE, not ITPP-related) (cohort 1, 1866 mg/m^2) | Neutropenia (AE, not ITPP-related) (cohort 1, 1866 mg/m^2) | Palpitations (AE, not ITPP-related) (cohort 1, 1866 mg/m^2) | Upper respiratory tract infection (AE, not ITPP-related) (cohort 1, 1866 mg/m^2) | AV Block 1° (AE, not ITPP-related) (cohort 2, 3732 mg/m^2) | Acute kidney injury grade 3 (AE, not ITPP-related) (cohort 2, 3732 mg/m^2) | Ascites due to oncological progress (AE, not ITPP-related) (cohort 2, 3732 mg/m^2) | C. difficile enteritis (AE, not ITPP-related) (cohort 2, 3732 mg/m^2) | Cholestasis (AE, not ITPP-related) (cohort 2, 3732 mg/m^2) | Fatigue (AE, not ITPP-related) (cohort 2, 3732 mg/m^2) | Hyperphosphatemia (TET) (cohort 2, 3732 mg/m^2) | Hypertension (TET) (cohort 2, 3732 mg/m^2) | Hypokalemia (AE, not ITPP-related) (cohort 2, 3732 mg/m^2) | Hyponatremia (AE, not ITPP-related) (cohort 2, 3732 mg/m^2) | Hypophosphatemia (TET) (cohort 2, 3732 mg/m^2) | Icterus due to malignant obstruction (AE, not ITPP-related) (cohort 2, 3732 mg/m^2) | Lower gastrointestinal bleeding (AE, not ITPP-related) (cohort 2, 3732 mg/m^2) | Nausea (AE, not ITPP-related) (cohort 2, 3732 mg/m^2) | Neutropenia (AE, not ITPP-related) (cohort 2, 3732 mg/m^2) | Palpitations (AE, not ITPP-related) (cohort 2, 3732 mg/m^2) | Pyrexia (AE, not ITPP-related) (cohort 2, 3732 mg/m^2) | Upper respiratory tract infection (AE, not ITPP-related) (cohort 2, 3732 mg/m^2) | AV Block 1° (AE, not ITPP-related) (cohort 3, 5600 mg/m^2) | Acute kidney injury grade 3 (AE, not ITPP-related) (cohort 3, 5600 mg/m^2) | Ascites due to oncological progress (AE, not ITPP-related) (cohort 3, 5600 mg/m^2) | Fatigue (AE, not ITPP-related) (cohort 3, 5600 mg/m^2) | Hyperphosphatemia (TET) (cohort 3, 5600 mg/m^2) | Hypertension (TET) (cohort 3, 5600 mg/m^2) | Hypokalemia (AE, not ITPP-related) (cohort 3, 5600 mg/m^2) | Hypomagnesemia (TET) (cohort 3, 5600 mg/m^2) | Hyponatremia (AE, not ITPP-related) (cohort 3, 5600 mg/m^2) | Icterus due to malignant obstruction (AE, not ITPP-related) (cohort 3, 5600 mg/m^2) | Lower gastrointestinal bleeding (AE, not ITPP-related) (cohort 3, 5600 mg/m^2) | Nausea & vomiting due to malignant infiltration of stomach (AE, not ITPP-related) (cohort 3, 5600 mg/m^2) | Nausea (AE, not ITPP-related) (cohort 3, 5600 mg/m^2) | Neutropenia (AE, not ITPP-related) (cohort 3, 5600 mg/m^2) | Pyrexia (AE, not ITPP-related) (cohort 3, 5600 mg/m^2) | Upper respiratory tract infection (AE, not ITPP-related) (cohort 3, 5600 mg/m^2) | AV Block 1° (AE, not ITPP-related) (cohort 4, 7000 mg/m^2) | C. difficile enteritis (AE, not ITPP-related) (cohort 4, 7000 mg/m^2) | Cholestasis (AE, not ITPP-related) (cohort 4, 7000 mg/m^2) | Hyperphosphatemia (TET) (cohort 4, 7000 mg/m^2) | Hypokalemia (AE, not ITPP-related) (cohort 4, 7000 mg/m^2) | Hypomagnesemia (TET) (cohort 4, 7000 mg/m^2) | Hyponatremia (AE, not ITPP-related) (cohort 4, 7000 mg/m^2)
Total: 2 (7.1%): Hypokalemia (AE, not ITPP-related) (all cohorts, n = 28, total (%)) | Pyrexia (AE, not ITPP-related) (all cohorts, n = 28, total (%))
57%: Share of AE at least possibly related to ITPP (all cohorts)
1: Pyrexia, CTCAE-Grade (cohort 1, AE, relationship to IMP: Unrelated) | Hypercalcemia, CTCAE-Grade (cohort 2, AE) | Hypomagnesemia, CTCAE-Grade (cohort 2, AE, relationship to IMP: Probably) | Hypercalcemia, CTCAE-Grade (cohort 3, AE) | Hypophosphatemia, CTCAE-Grade (cohort 3, AE, relationship to IMP: Probably) | Palpations, CTCAE-Grade (cohort 3, AE, relationship to IMP: Unrelated) | Cholestasis, CTCAE-Grade (cohort 3, SAE, relationship to IMP: Unlikely)
19 (67.9%): Hypercalcemia (TET) (all cohorts, n = 28, total (%))
3: C. difficile enteritis, CTCAE-Grade (cohort 3, SAE, relationship to IMP: Unrelated)
32: Number of treatment-related toxicities (TET, at least possibly related to ITPP) (28 patients, all cohorts)
2: Lower gastrointestinal bleeding, CTCAE-Grade [1] | Nausea & Vomiting necessitating hospitalisation, CTCAE-Grade (cohort 2, SAE, relationship to IMP: Unrelated)
Total: 5 (17.9%): Hypomagnesemia (TET) (all cohorts, n = 28, total (%))
4/28: Hypophosphatemia, patients (all CTCAE grade I)
7: Number of serious adverse events (SAE) (all cohorts)
24: Number of AE unlikely to be ITPP-induced (all cohorts)
Total: 4 (14.3%): Hypophosphatemia (TET) (all cohorts, n = 28, total (%))
